Entries after “also recorded” stand apart in the source; their conditions may differ.
Tests used:
[1] = Cytotoxicity, Sulforhodamine B assay; format: cell-based, human; settings: human, HFF-1 normal foreskin fibroblast cells; HFF-1 proliferation, 48-h incubation, 0.78 μM to 100 μM
Protocol: Given the significance of a drug candidate’s toxicity in relation to its inhibition potential, a cytotoxicity assay was conducted using Normal Human Foreskin Fibroblasts (HFF-1).
All assays were carried out in triplicate. Cell proliferation was determined by the Sulforhodamine B assay, and the half-maximal cytotoxic concentration (CC50) was determined by Probit analysis.

[2] = system: HepG2 cells; assay: Cell viability of HepG2 with crystal violet; format: cell-based, human; settings: 1, 10, and 30 µM for 24, 48 and 72 h
Protocol: A 96-well plate was seeded with 3,000 HepG2 cells per well and incubated for 72 h. Subsequently, the cells were treated with test compounds at various concentrations for 24, 48, and 72 h. After incubation, the medium was removed, and 100 μL of 1% glutaraldehyde was added for 15 min. The glutaraldehyde was then removed, and 50 μL of 0.5% crystal violet (dissolved in 25% methanol) was added for 30 min. The crystal violet staining solution was subsequently removed, and the plate was thoroughly rinsed with tap water. The precipitate was dissolved in a 10% acetic acid solution, mixed for 15 min, and the absorbance was measured at 590 nm using a plate reader (xMark Microplate Spectrophotometer, Bio-Rad).
Figure S48. Cell viability assessment by crystal violet staining. HepG2 cell viability was evaluated after treatment with the respective compounds at concentrations of 1 , 10, and 30 µM for 24 , 48 and 72 hours. Bar graphs represent mean ± SEM. No significant differences were detected using ANOVA. […]

[3] = system: normoglycemic CD1 mice; assay: Oral glucose tolerance test (OGTT); format: in vivo; settings: single intragastric dose 50 mg/kg, glucose 2 g/kg
Protocol: The studies were carried out on compounds 4b, 4g, and 5g using both normoglycemic CD1 mice and a mouse model of noninsulin-dependent diabetes mellitus (NIDDM). An oral glucose tolerance test (OGTT) was conducted on the normoglycemic mice to evaluate the hypoglycemic activity of the compounds, while an insulin tolerance test (ITT) was performed on hyperglycemic CD1 mice to assess the compounds’ capacity to enhance insulin sensitivity in streptozotocin-induced diabetic mice. Pioglitazone and GA were included as positive controls.
Healthy six-week-old male CD-1 mice, weighing between 30 and 40 g, were maintained at a temperature of 25 ± 2 °C, under a 12-h light/dark cycle and 45–65% humidity throughout the experimental period. The mice were provided with a rodent pelleted diet (Harlan Laboratories, Indianapolis, USA) and had access to water ad libitum. Sixteen hours before the experiment, all mice were fasted but still had free access to water. All animal procedures were conducted in accordance with the Mexican Federal Regulations for Animal Experimentation and Care (SAGARPA, NOM-062-ZOO-1999, Mexico) and received approval from the Institutional Animal Care and Use Committee, following guidelines outlined in the US National Institutes of Health publication (No. 85–23, revised 1985).
Animals were categorized into five groups, each consisting of four mice (n = 4). The experimental groups received an oral suspension of compounds 4b, 4g, and 5g, prepared in a 10% Tween 20/water solution, at a dosage of 50 mg/kg body weight. A control group was treated with only the 10% Tween 20 solution. The final group was administered pioglitazone at a dose of 45 mg/kg, which is recognized as a reference drug for insulin sensitization. To evaluate glucose levels, blood samples were collected from the tails of the mice at 0, 30, 60, 90, and 120 min after the administration of the vehicle, test compound, or drug. Blood glucose concentration was measured using a commercial glucometer (Accu-Chek, Performa; Roche) and the enzymatic glucose dehydrogenase method. The percentage variation in glycemia was calculated by comparing the selected postadministration glycemia (G x ) with the initial value (G0) using the following formula: %variationofglycemia=[(Gx−G0)/G0]×100 where G0 represents the initial glycemia values and Gx indicates the glycemia values at +30, + 60, + 90, and +120 min, respectively.
To determine the hypoglycemic effect of the compounds on nondiabetic animals, the compounds 4b, 4g, and 5g were administered intragastrically. Pioglitazone was used as a positive control. After 30 min, five mice/group (CD-1) were subjected to OGTT. The test was performed using glucose (2 g/kg) as substrate.

[4] = system: STZ-induced diabetic CD-1 mice; assay: Insulin tolerance test (ITT); format: in vivo; settings: for glycemia variation in ITT: single intragastric dose 50 mg/kg, insulin 0.75 IU after 30 min
Protocol: The studies were carried out on compounds 4b, 4g, and 5g using both normoglycemic CD1 mice and a mouse model of noninsulin-dependent diabetes mellitus (NIDDM). An oral glucose tolerance test (OGTT) was conducted on the normoglycemic mice to evaluate the hypoglycemic activity of the compounds, while an insulin tolerance test (ITT) was performed on hyperglycemic CD1 mice to assess the compounds' capacity to enhance insulin sensitivity in streptozotocin-induced diabetic mice. Pioglitazone and GA were included as positive controls. […] Healthy six-week-old male CD-1 mice, weighing between 30 and 40 g, were maintained at a temperature of 25 ± 2 °C, under a 12-h light/dark cycle and 45-65% humidity throughout the experimental period. The mice were provided with a rodent pelleted diet (Harlan Laboratories, Indianapolis, USA) and had access to water ad libitum. Sixteen hours before the experiment, all mice were fasted but still had free access to water. All animal procedures were conducted in accordance with the Mexican Federal Regulations for Animal Experimentation and Care (SAGARPA, NOM-062-ZOO-1999, Mexico) and received approval from the Institutional Animal Care and Use Committee, following guidelines outlined in the US National Institutes of Health publication (No. 85-23, revised 1985). Streptozotocin (STZ) was dissolved in citrate buffer (pH 4.5), while nicotinamide was dissolved in a normal physiological saline solution. The noninsulin-dependent diabetes (NIDD) mouse model was induced in overnight-fasted mice through a single intraperitoneal injection of STZ (100 mg/kg). Nicotinamide was administered 15 min prior, at a dose of 20 mg/kg via intraperitoneal injection. […] Roche). […] Animals were categorized into five groups, each consisting of four mice (n = 4). The experimental groups received an oral suspension of compounds 4b, 4g, and 5g, prepared in a 10% Tween 20/water solution, at a dosage of 50 mg/kg body weight. A control group was treated with only the 10% Tween 20 solution. The final group was administered pioglitazone at a dose of 45 mg/kg, which is recognized as a reference drug for insulin sensitization. To evaluate glucose levels, blood samples were collected from the tails of the mice at 0, 30, 60, 90, and 120 min after the administration of the vehicle, test compound, or drug. Blood glucose concentration was measured using a commercial glucometer (Accu-Chek, Performa; Roche) and the enzymatic glucose dehydrogenase method. The percentage variation in glycemia was calculated by comparing the selected postadministration glycemia (G x ) with the initial value (G0) using the following formula: %[…]=[(Gx-G0)/G0]×100 where G0 represents the initial glycemia values and Gx indicates the glycemia values at +30, + 60, + 90, and +120 min, respectively. To evaluate the ability of GA derivatives to enhance insulin sensitivity in STZ-induced diabetic CD-1 mice, compounds 4b, 4g, and 5g were tested. Glycyrrhetinic acid (GA) and Pioglitazone served as positive controls. The GA derivatives and the positive controls were administered to the diabetic animals, followed by the administration of human rapid-acting insulin (0.75 IU) after 30 min. Subsequently, glucose levels were measured every 15 min.

| Structure (SMILES) | CC50 at 48 h [1] | HepG2 cell viability [2] | hypoglycemic effect in OGTT [3] | ITT activity compared to GA ([4]; 50 mg/kg) | glycemia variation in ITT ([4]; 50 mg/kg) | glycemia variation in ITT [4] | ITT activity compared to pioglitazone ([4]; 50 mg/kg vs pioglitazone 45 mg/kg) | glycemic variation in ITT compared with normoglycemic mice ([4]; 50 mg/kg, after the 45th minute) |
| --- | --- | --- | --- | --- | --- | --- | --- | --- |
| CC1(C)c2[nH]c3ccc(OC(F)F)cc3c2C[C@]2(C)[C@H]3C(=O)C=C4[C@@H]5C[C@@](C)(C(=O)O)CC[C@]5(C)CC[C@@]4(C)[C@]3(C)CC[C@@H]12 [compound 4b, (20β)-5′-(Difluoromethoxy)-11-oxo-1′H-oleana-2,12-dieno[3,2-b]indol-29-oic Acid] | 98.7 ± 2 µM | No significant differences; also recorded: did not compromise HepG2 cell viability | did not cause hypoglycemia | greater potency than GA | significantly reduced glucose levels; also recorded: reduce glycemia variation starting from the 15th minute | – | – | – |
| CC1(C)c2[nH]c3ccc(S(N)(=O)=O)cc3c2C[C@]2(C)[C@H]3C(=O)C=C4[C@@H]5C[C@@](C)(C(=O)O)CC[C@]5(C)CC[C@@]4(C)[C@]3(C)CC[C@@H]12 [compound 4g, (20β)-5′-Sulfamoyl-11-oxo-1′H-oleana-2,12-dieno[3,2-b]indol-29-oic Acid] | > 100 µM | No significant differences | did not cause hypoglycemia | – | – | reduce glycemia variation starting from the 15th minute | – | – |
| CC1(C)c2c(cnn2-c2ccc(S(N)(=O)=O)cc2)C[C@]2(C)[C@H]3C(=O)C=C4[C@@H]5C[C@@](C)(C(=O)O)CC[C@]5(C)CC[C@@]4(C)[C@]3(C)CC[C@@H]12 [compound 5g, (20β)-11-Oxo-2′-(4-sulfamoylphenyl)-2′H-oleana-2,12-dieno[3,2-c]pyrazol-29-oic Acid] | > 100 µM | No significant differences; also recorded: did not compromise HepG2 cell viability | did not cause hypoglycemia | greater potency than GA | significantly reduced glucose levels; also recorded: reduce glycemia variation starting from the 15th minute | – | superior activity compared to pioglitazone | no significant differences in glycemic variation |
